From PubChem BioAssay (NCI)
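Results reflect a 48-hour exposure of cells in 96-well plates to compound at five concentrations. TGI is the concentration that stops growth completely.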

Assays:
Experiment in all cases: NCI-60 cell line screen, 48 h
LXFL 529 NSCLC = system: LXFL 529 NSCLC
RXF-631 renal = system: RXF-631 renal
SNB-78 CNS = system: SNB-78 CNS
XF 498 CNS = system: XF 498 CNS
DMS 114 small cell lung = system: DMS 114 small cell lung
DMS 273 small cell lung = system: DMS 273 small cell lung
DLD-1 colon = system: DLD-1 colon

| SMILES | TGI (LXFL 529 NSCLC) | TGI (RXF-631 renal) | TGI (SNB-78 CNS) | TGI (XF 498 CNS) | TGI (DMS 114 small cell lung) | TGI (DMS 273 small cell lung) | TGI (DLD-1 colon) |
| --- | --- | --- | --- | --- | --- | --- | --- |
| N#CC(/C(=N\NC(N)=S)C(=O)NC1C2CC3CC(C2)CC1C3)c1ccc(Cl)cc1 (stereo not drawn) | > 100 µM | > 100 µM | > 100 µM | > 100 µM | > 100 µM | > 100 µM | > 100 µM |
| Cc1ccc(C)c(NC(=O)CCc2n[nH]c(=S)o2)c1 | > 100 µM | > 100 µM | > 100 µM | > 100 µM | > 100 µM | > 100 µM | > 100 µM |
| C/C(=N\NC(=S)Nc1ccc([N+](=O)[O-])cc1S(=O)(=O)O)c1ccccn1 | > 100 µM | > 100 µM | > 100 µM | 78.7 µM | > 100 µM | > 100 µM | > 100 µM |
| COc1ccc(-c2nc(N)nc(-c3cc(C)ccc3O)c2Cl)cc1 | > 100 µM | > 100 µM | 81.9 µM | 64.3 µM | > 100 µM | > 100 µM | > 100 µM |
